Patent US8524917B2, “6-substituted indole-3-carboxylic acid amide compounds having sphingosine-1-phosphate (S1P) receptor antagonist biological activity” (Allergan, Inc., priority 2007, dated 2013)
Where two headings read alike, the source gives them in different places.

Biological target: human S1P3 receptor (Homo sapiens (Human), UniProt Q99500)
Assay: Activation or block of activation of human S1P3 receptor, Ca+2 FLIPR assay
Format: cell-based
Conditions: for Kb: second concentration in the cell, read-out: S1P3 Kb
Protocol: Compounds were assessed for their ability to activate or block activation of the human S1P3 receptor in T24 cells stably expressing the human S1P3 receptor. Ten thousand cells/well were plated into 384-well poly-D-lysine coated plates one day prior to use. The growth media for the S1P3 receptor expressing cell line was McCoy's 5A medium supplemented with 10% charcoal-treated fetal bovine serum (FBS), 1% antibiotic-antimycotic and 400 μg/ml geneticin. On the day of the experiment, the cells were washed twice with Hank's Balanced Salt Solution supplemented with 20 mM HEPES (HBSS/Hepes buffer). […] Extracellular dye was removed by washing the cell plates four times prior to placing the plates in the FLIPR (Fluorometric Imaging Plate Reader, Molecular Devices). Ligands were diluted in HBSS/Hepes buffer and prepared in 384-well microplates. The positive control, Sphingosine-1-Phosphate (S1P), was diluted in HBSS/Hepes buffer with 4 mg/ml fatty acid free bovine serum albumin. The FLIPR transferred 12.5 μl from the ligand microplate to the cell plate and took fluorescent measurements for 75 seconds, taking readings every second, and then for 2.5 minutes, taking readings every 10 seconds. […] IC50 values were determined through a […] analysis using the Levenburg Marquardt algorithm.

[1] = T24 cells stably expressing the human S1P3 receptor, FLIPR Ca+2 response, 0.61 nM to 10,000 nM, read-out: S1P3 IC50
[2] = T24 cells stably expressing the human S1P3 receptor, value in brackets
[3] = T24 cells stably expressing the human S1P3 receptor

human S1P3 receptor, sequence (Q99500 whole entry): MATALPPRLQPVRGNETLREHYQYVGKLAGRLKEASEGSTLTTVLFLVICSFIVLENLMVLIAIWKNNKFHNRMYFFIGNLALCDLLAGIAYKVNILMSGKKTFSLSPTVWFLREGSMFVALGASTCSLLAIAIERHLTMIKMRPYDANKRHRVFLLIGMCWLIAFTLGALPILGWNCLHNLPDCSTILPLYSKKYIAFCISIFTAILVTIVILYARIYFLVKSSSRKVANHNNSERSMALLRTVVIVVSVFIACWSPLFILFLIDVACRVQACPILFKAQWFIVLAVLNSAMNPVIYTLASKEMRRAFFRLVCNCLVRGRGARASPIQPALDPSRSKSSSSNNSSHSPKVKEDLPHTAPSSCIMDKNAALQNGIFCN

For COC(=O)c1ccc2c(C(=O)NCc3ccc(F)c(F)c3)c(C(C)C)n(Cc3ccccc3)c2c1, which IC50 [1] is on record?
Its IC50 is 12 nM.

What about the “S1P3 (% inh)” value [2] of the same compound?
The value was 100%.

With CC(C)c1c(C(=O)NCc2ccc(F)c(F)c2)c2ccc(C(=O)O)cc2n1Cc1ccccc1 as the compound, how does the IC50 [1] read?
The IC50 was greater than 10000 nM.

And the “S1P3 (% inh)” value [2]?
The value was 40%.

How did the IC50 turn out when CC(C)c1c(C(=O)NCc2ccc(F)c(F)c2)c2ccc(C(=O)N3CCCC3)cc2n1Cc1ccccc1 was run?
The IC50 was 170 nM.

What about the “S1P3 (% inh)” value [2] of the same compound?
Its value is 170 nM (100) %.

Which IC50 [1] does the source give for CC(C)c1c(C(=O)NCc2ccc(F)c(F)c2)c2ccc(C(=O)N(C)C)cc2n1Cc1ccccc1 here?
Its IC50 is 197 nM.

What about the “S1P3 (% inh)” value [2] of the same compound?
Its value is 100%.

Which results are given for CC(C)NC(=O)c1ccc2c(C(=O)NCc3ccc(F)c(F)c3)c(C(C)C)n(Cc3ccccc3)c2c1?
IC50 [1]: 634 nM; S1P3 (% inh) [2]: 100%

CCNC(=O)c1ccc2c(C(=O)NCc3ccc(F)c(F)c3)c(C(C)C)n(Cc3ccccc3)c2c1 was tested. Which IC50 [1] did it give?
The IC50 was 346 nM.

And the “S1P3 (% inh)” value [2]?
The value was 99%.

With CCCNC(=O)c1ccc2c(C(=O)NCc3ccc(F)c(F)c3)c(C(C)C)n(Cc3ccccc3)c2c1 as the compound, how does the IC50 [1] read?
The IC50 was 146 nM.

What about the “S1P3 (% inh)” value [2] of the same compound?
The value was 99%.

CC(C)c1c(C(=O)NCc2ccc(F)c(F)c2)c2ccc(CN3CCCC3)cc2n1Cc1ccccc1 was tested. Which IC50 [1] did it give?
Its IC50 is 362 nM.

What about the “S1P3 (% inh)” value [2] of the same compound?
The value was 93%.

Which IC50 [1] does the source give for CC(C)c1c(C(=O)NCc2ccc(F)c(F)c2)c2ccc(CN(C)C)cc2n1Cc1ccccc1 here?
Its IC50 is 990 nM.

What about the “S1P3 (% inh)” value [2] of the same compound?
The value was 98%.

CC(C)NCc1ccc2c(C(=O)NCc3ccc(F)c(F)c3)c(C(C)C)n(Cc3ccccc3)c2c1 was tested. Which IC50 [1] did it give?
Its IC50 is 2300 nM.

And the “S1P3 (% inh)” value [2]?
The value was 84%.

With CCNCc1ccc2c(C(=O)NCc3ccc(F)c(F)c3)c(C(C)C)n(Cc3ccccc3)c2c1 as the compound, how does the IC50 [1] read?
The IC50 was 2500 nM.

And the “S1P3 (% inh)” value [2]?
The value was 87%.

Which results are given for CCCNCc1ccc2c(C(=O)NCc3ccc(F)c(F)c3)c(C(C)C)n(Cc3ccccc3)c2c1?
IC50 [1]: 2600 nM; S1P3 (% inh) [2]: 77%

CC(C)COC(=O)c1ccc2c(C(=O)NCc3ccc(F)c(F)c3)c(C(C)C)n(Cc3ccccc3)c2c1 was tested. Which IC50 did it give?
The IC50 was 12 nM.

And the “S1P3 (% inh)” value [2]?
The value was 12 nM (97) %.

What does the source list for CCCCOC(=O)c1ccc2c(C(=O)NCc3ccc(F)c(F)c3)c(C(C)C)n(Cc3ccccc3)c2c1?
IC50 [1]: 4 nM; S1P3 (% inh) [2]: 97%

What does the source list for CO/N=C/c1ccc2c(C(=O)NCc3ccc(F)c(F)c3)c(C(C)C)n(Cc3ccccc3)c2c1?
IC50 [1]: 21 nM; S1P3 (% inh) [2]: 99%

Which IC50 [1] does the source give for CC(C)CO/N=C/c1ccc2c(C(=O)NCc3ccc(F)c(F)c3)c(C(C)C)n(Cc3ccccc3)c2c1 here?
Its IC50 is 88 nM.

And the “S1P3 (% inh)” value [2]?
The value was 100%.

Which results are given for CC(C)c1c(C(=O)NCc2cccnc2)c2ccc(OC3CCCC3)cc2n1Cc1ccccn1?
IC50 [1]: 86 nM; S1P3 (% inh) [2]: 95%

Which IC50 [1] does the source give for CCOC(=O)c1ccc2c(C(=O)NCc3ccccc3)c(C(C)C)n(Cc3ccccc3)c2c1 here?
Its IC50 is 9 nM.

And the “S1P3 (% inh)” value [2]?
Its value is 96%.

What does the source list for CCOC(=O)c1ccc2c(C(=O)NCc3cccnc3)c(C(C)C)n(Cc3ccccc3)c2c1?
IC50: 187 nM; S1P3 (% inh): 187 nM (95) %

Which results are given for CCO/N=C/c1ccc2c(C(=O)NCc3ccc(F)c(F)c3)c(C(C)C)n(Cc3ccccc3)c2c1?
IC50 [1]: 145 nM; S1P3 (% inh) [2]: 99%

How did the “S1P3 (% inh)” value [2] turn out when CC(C)Oc1ccc2c(C(=O)NCc3cccnc3)c(C(C)C)n(Cc3ccccn3)c2c1 was run?
Its value is “ND (98) %”.

CCCOc1ccc2c(C(=O)NCc3cccnc3)c(C(C)C)n(Cc3ccccn3)c2c1 was tested. Which IC50 [1] did it give?
The IC50 was 1200 nM.

What about the “S1P3 (% inh)” value [2] of the same compound?
Its value is 99%.

With CC(C)COc1ccc2c(C(=O)NCc3cccnc3)c(C(C)C)n(Cc3ccccn3)c2c1 as the compound, how does the IC50 read?
Its IC50 is 124 nM.

And the “S1P3 (% inh)” value?
Its value is 124 nM (99) %.

How did the “S1P3 (% inh)” value [2] turn out when CC(C)c1c(C(=O)NCc2cccnc2)c2ccc(O)cc2n1Cc1ccccn1 was run?
Its value is “ND (54) %”.

CCOC(=O)c1ccc2c(C(=O)NCc3cccc(F)c3)c(C(C)C)n(Cc3ccccc3)c2c1 was tested. Which IC50 [1] did it give?
The IC50 was 42 nM.

And the “S1P3 (% inh)” value [2]?
The value was 99%.

How did the IC50 [1] turn out when CCOC(=O)c1ccc2c(C(=O)NCc3ccc(F)cc3)c(C(C)C)n(Cc3ccccc3)c2c1 was run?
The IC50 was 43 nM.

What about the “S1P3 (% inh)” value [2] of the same compound?
The value was 99%.

For CC(C)OC(=O)c1ccc2c(C(=O)NCc3ccc(F)c(F)c3)c(C(C)C)n(Cc3ccccc3)c2c1, which IC50 [1] is on record?
The IC50 was 45 nM.

What about the “S1P3 (% inh)” value [2] of the same compound?
Its value is 99%.

CC(C)c1c(C(=O)NCc2ccc(F)c(F)c2)c2ccc(/C=N/OC(C)(C)C)cc2n1Cc1ccccc1 was tested. Which IC50 [1] did it give?
Its IC50 is 145 nM.

What about the “S1P3 (% inh)” value [2] of the same compound?
Its value is 99%.

For CCO/N=C(\C)c1ccc2c(C(=O)NCc3ccc(F)c(F)c3)c(C(C)C)n(Cc3ccccc3)c2c1, which IC50 [1] is on record?
Its IC50 is 262 nM.

What about the “S1P3 (% inh)” value [2] of the same compound?
Its value is 98%.

CO/N=C(\C)c1ccc2c(C(=O)NCc3ccc(F)c(F)c3)c(C(C)C)n(Cc3ccccc3)c2c1 was tested. Which IC50 did it give?
Its IC50 is 147 nM.

What about the “S1P3 (% inh)” value of the same compound?
Its value is 147 nM (100) %.

With CC(C)c1c(C(=O)NCc2ccc(F)c(F)c2)c2ccc(OC3CCN(C(=O)OC(C)(C)C)C3)cc2n1Cc1ccccc1 (stereo not shown) as the compound, how does the IC50 [1] read?
Its IC50 is 673 nM.

What about the “S1P3 (% inh)” value [2] of the same compound?
Its value is 100%.

What does the source list for CC(C)c1c(C(=O)NCc2ccc(F)c(F)c2)c2ccc(OC3CCNC3)cc2n1Cc1ccccc1 (stereo not shown)?
IC50 [1]: 2400 nM; S1P3 (% inh) [2]: 80%

CCOC(=O)c1ccc2c(C(=O)NCc3cccc(F)c3)c(C(C)C)n(Cc3ccccn3)c2c1 was tested. Which IC50 did it give?
The IC50 was 174 nM.

What about the “S1P3 (% inh)” value of the same compound?
Its value is 174 nM (100) %.

CC(C)c1c(C(=O)NCc2ccc(F)c(F)c2)c2ccc(OC3CCOC3)cc2n1Cc1ccccn1 (stereo not shown) was tested. Which IC50 [1] did it give?
The IC50 was 19 nM.

What about the Kb [3] of the same compound?
The Kb was 21 nM.

And the “S1P3 (% inh)” value [2]?
Its value is 100%.

How did the IC50 [1] turn out when CC(C)c1c(C(=O)NCc2ccc(F)c(F)c2)c2ccc(OC3CCCC3)cc2n1Cc1ccccn1 was run?
The IC50 was 3 nM.

What about the Kb [3] of the same compound?
The Kb was 4 nM.

And the “S1P3 (% inh)” value [2]?
Its value is 100%.

For C#CCOc1ccc2c(C(=O)NCc3ccc(F)c(F)c3)c(C(C)C)n(Cc3ccccn3)c2c1, which IC50 [1] is on record?
The IC50 was 324 nM.

What about the “S1P3 (% inh)” value [2] of the same compound?
The value was 99%.

How did the IC50 [1] turn out when CC(C)c1c(C(=O)NCc2ccc(F)c(F)c2)c2ccc(/C=N/N(C)C)cc2n1Cc1ccccn1 was run?
Its IC50 is 93 nM.

And the “S1P3 (% inh)” value [2]?
Its value is 100%.

With CO/N=C/c1ccc2c(C(=O)NCc3ccc(F)c(F)c3)c(C(C)C)n(Cc3ccccn3)c2c1 as the compound, how does the IC50 [1] read?
Its IC50 is 137 nM.

And the “S1P3 (% inh)” value [2]?
Its value is 100%.

With CC(=NO)c1c(C(=O)NCc2ccc(F)c(F)c2)c2ccc(OC(C)C)cc2n1Cc1ccccn1 (stereo in doubt) [Compound 110, (E)-N-(3,4-Difluorobenzyl)-2-(1-(hydroxyimino)ethyl)-6-isopropoxy-1-(pyridin-2-ylmethyl)-1H-indole-3-carboxamide] as the compound, how does the IC50 read?
The IC50 was 384 nM.

What about the “S1P3 (% inh)” value of the same compound?
Its value is 384 nM (100) %.

Which results are given for CON=C(C)c1c(C(=O)NCc2ccc(F)c(F)c2)c2ccc(OC(C)C)cc2n1Cc1ccccn1 (stereo in doubt) [Compound 111, (E)-N-(3,4-Difluorobenzyl)-6-isopropoxy-2-(1-(methoxyimino)ethyl)-1-(pyridin-2-ylmethyl)-1H-indole-3-carboxamide]?
S1P3 (% inh): 263 nM (100) %; IC50 (read-out: S1P3 IC50): 263 nM

Which IC50 [1] does the source give for COc1ccc2c(C(=O)NCc3ccc(F)c(F)c3)c(C(C)C)n(Cc3ccccc3)c2c1 [Compound 7, 1-Benzyl-N-(3,4-difluorobenzyl)-2-isopropyl-6-methoxy-1H-indole-3-carboxamide] here?
The IC50 was 560 nM.

What about the “S1P3 (% inh)” value [2] of the same compound?
The value was 98%.

How did the IC50 [1] turn out when CC(C)c1c(C(=O)NCc2ccc(F)c(F)c2)c2ccc(O)cc2n1Cc1ccccc1 [Compound 8, 1-Benzyl-N-(3,4-difluorobenzyl)-6-hydroxy-2-isopropyl-1H-indole-3-carboxamide] was run?
Its IC50 is 3100 nM.

What about the “S1P3 (% inh)” value [2] of the same compound?
The value was 71%.

With CCCOc1ccc2c(C(=O)NCc3ccc(F)c(F)c3)c(C(C)C)n(Cc3ccccc3)c2c1 [Compound 10, 1-Benzyl-N-(3,4-difluorobenzyl)-2-isopropyl-6-propoxy-1H-indole-3-carboxamide] as the compound, how does the Kb [3] read?
The Kb was 2 nM.
